Data reported in the supplement of paper PMC10307832.

How the values were obtained:
Experiment in all cases: relative viability (nuclei count vs DMSO), 5 days (fraction); higher = more cells survive
[1] = test system: LU99A
How it was run: (§1)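 Five library-drug doses in √10 steps were combined with a fixed anchor-drug dose, or a single drug was given alone, by pin tool to lung cancer cell lines in 1536-well plates the day after seeding. Nuclei were stained and counted after 5 days. Relative viability is the nuclei count in treated wells over that in vehicle wells, taken as the median of duplicate plates.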

[2] = test system: LC-2-ad
How it was run: as §1

[3] = test system: NCI-H358
How it was run: as §1

[4] = test system: UMC-11
How it was run: as §1

[5] = test system: NCI-H1915
How it was run: as §1

[6] = test system: NCI-H1944
How it was run: as §1

[7] = test system: HOP-62
How it was run: as §1

[8] = test system: NCI-H1666
How it was run: as §1

[9] = test system: NCI-H1793
How it was run: as §1

[10] = test system: HCC-78
How it was run: as §1

[11] = test system: SK-LU-1
How it was run: as §1

[12] = test system: NCI-H2085
How it was run: as §1

[13] = test system: EPLC-272H
How it was run: as §1

[14] = test system: COR-L 105
How it was run: as §1

[15] = test system: NCI-H460
How it was run: as §1

[16] = test system: A-427
How it was run: as §1

[17] = test system: HCC-366
How it was run: as §1

[18] = test system: NCI-H2009
How it was run: as §1

[19] = test system: NCI-H1792
How it was run: as §1

[20] = test system: LXF-289
How it was run: as §1

Q: Which relative viability ([1]; first compound 0.0002 µM) does the source give for `CC(=O)O[C@@]12CO[C@@H]1C[C@H](O)[C@@]1(C)C(=O)[C@H](O)C3=C(C)[C@@H](OC(=O)[C@H](O)[C@@H](NC(=O)OC(C)(C)C)c4ccccc4)C[C@@](O)([C@@H](OC(=O)c4ccccc4)[C@H]21)C3(C)C` [Docetaxel] + C[C@]1(O)C[C@@H](c2nc(-c3ccc4ccc(-c5ccccc5)nc4c3)c3c(N)nccn32)C1 [Linsitinib] (partner 1 µM) here?
A: The relative viability was 0.52.

Q: What about the relative viability ([1]; first compound 0.000632 µM) of the same compound?
A: Its relative viability is 0.458.

Q: And the relative viability ([1]; first compound 0.002 µM)?
A: The relative viability was 0.356.

Q: And the relative viability ([1]; first compound 0.006325 µM)?
A: Its relative viability is 0.262.

Q: What about the relative viability ([1]; first compound 0.02 µM) of the same compound?
A: The relative viability was 0.169.

Q: And the relative viability ([2]; first compound 0.0002 µM)?
A: Its relative viability is 0.714.

Q: And the relative viability ([2]; first compound 0.000632 µM)?
A: Its relative viability is 0.223.

Q: And the relative viability ([2]; first compound 0.002 µM)?
A: The relative viability was 0.185.

Q: What about the relative viability ([2]; first compound 0.006325 µM) of the same compound?
A: Its relative viability is 0.159.

Q: What about the relative viability ([2]; first compound 0.02 µM) of the same compound?
A: The relative viability was 0.112.

Q: What about the relative viability ([3]; first compound 0.0002 µM) of the same compound?
A: The relative viability was 0.63.

Q: And the relative viability ([3]; first compound 0.000632 µM)?
A: The relative viability was 0.371.

Q: And the relative viability ([3]; first compound 0.002 µM)?
A: The relative viability was 0.206.

Q: What about the relative viability ([3]; first compound 0.02 µM) of the same compound?
A: Its relative viability is 0.136.

Q: What about the relative viability ([4]; first compound 0.0002 µM) of the same compound?
A: Its relative viability is 0.982.

Q: What about the relative viability ([4]; first compound 0.000632 µM) of the same compound?
A: Its relative viability is 0.905.

Q: And the relative viability ([4]; first compound 0.002 µM)?
A: The relative viability was 0.278.

Q: What about the relative viability ([4]; first compound 0.006325 µM) of the same compound?
A: The relative viability was 0.237.

Q: And the relative viability ([4]; first compound 0.02 µM)?
A: Its relative viability is 0.183.

Q: And the relative viability ([5]; first compound 0.0002 µM)?
A: The relative viability was 1.07.

Q: What about the relative viability ([5]; first compound 0.000632 µM) of the same compound?
A: Its relative viability is 1.06.

Q: And the relative viability ([5]; first compound 0.002 µM)?
A: Its relative viability is 0.724.

Q: What about the relative viability ([5]; first compound 0.006325 µM) of the same compound?
A: Its relative viability is 0.239.

Q: And the relative viability ([5]; first compound 0.02 µM)?
A: Its relative viability is 0.156.

Q: What about the relative viability ([6]; first compound 0.0002 µM) of the same compound?
A: The relative viability was 1.11.

Q: And the relative viability ([6]; first compound 0.000632 µM)?
A: The relative viability was 1.13.

Q: What about the relative viability ([6]; first compound 0.002 µM) of the same compound?
A: The relative viability was 1.18.

Q: And the relative viability ([6]; first compound 0.006325 µM)?
A: Its relative viability is 0.349.

Q: What about the relative viability ([6]; first compound 0.02 µM) of the same compound?
A: Its relative viability is 0.208.

Q: And the relative viability ([7]; first compound 0.0002 µM)?
A: Its relative viability is 1.18.

Q: And the relative viability ([7]; first compound 0.000632 µM)?
A: The relative viability was 0.672.

Q: What about the relative viability ([7]; first compound 0.02 µM) of the same compound?
A: Its relative viability is 0.128.

Q: What about the relative viability ([8]; first compound 0.0002 µM) of the same compound?
A: Its relative viability is 0.712.

Q: What about the relative viability ([8]; first compound 0.000632 µM) of the same compound?
A: The relative viability was 0.404.

Q: And the relative viability ([8]; first compound 0.002 µM)?
A: The relative viability was 0.383.

Q: What about the relative viability ([8]; first compound 0.006325 µM) of the same compound?
A: The relative viability was 0.28.

Q: What about the relative viability ([8]; first compound 0.02 µM) of the same compound?
A: The relative viability was 0.211.

Q: And the relative viability ([9]; first compound 0.0002 µM)?
A: Its relative viability is 1.01.

Q: And the relative viability ([9]; first compound 0.000632 µM)?
A: The relative viability was 0.939.

Q: And the relative viability ([9]; first compound 0.002 µM)?
A: Its relative viability is 0.666.

Q: And the relative viability ([9]; first compound 0.006325 µM)?
A: Its relative viability is 0.352.

Q: And the relative viability ([9]; first compound 0.02 µM)?
A: The relative viability was 0.218.

Q: And the relative viability ([10]; first compound 0.0002 µM)?
A: The relative viability was 0.469.

Q: And the relative viability ([10]; first compound 0.000632 µM)?
A: The relative viability was 0.429.

Q: What about the relative viability ([10]; first compound 0.002 µM) of the same compound?
A: Its relative viability is 0.339.

Q: And the relative viability ([10]; first compound 0.006325 µM)?
A: The relative viability was 0.284.

Q: What about the relative viability ([10]; first compound 0.02 µM) of the same compound?
A: The relative viability was 0.222.

Q: What about the relative viability ([11]; first compound 0.0002 µM) of the same compound?
A: The relative viability was 0.899.

Q: And the relative viability ([11]; first compound 0.000632 µM)?
A: The relative viability was 0.437.

Q: What about the relative viability ([11]; first compound 0.002 µM) of the same compound?
A: Its relative viability is 0.406.

Q: And the relative viability ([11]; first compound 0.006325 µM)?
A: The relative viability was 0.344.

Q: And the relative viability ([11]; first compound 0.02 µM)?
A: Its relative viability is 0.232.

Q: And the relative viability ([12]; first compound 0.0002 µM)?
A: The relative viability was 0.868.

Q: What about the relative viability ([12]; first compound 0.000632 µM) of the same compound?
A: The relative viability was 0.888.

Q: And the relative viability ([12]; first compound 0.002 µM)?
A: The relative viability was 0.652.

Q: And the relative viability ([12]; first compound 0.006325 µM)?
A: The relative viability was 0.576.

Q: And the relative viability ([12]; first compound 0.02 µM)?
A: The relative viability was 0.276.

Q: And the relative viability ([13]; first compound 0.0002 µM)?
A: The relative viability was 1.08.

Q: What about the relative viability ([13]; first compound 0.000632 µM) of the same compound?
A: Its relative viability is 0.954.

Q: And the relative viability ([13]; first compound 0.002 µM)?
A: Its relative viability is 0.54.

Q: And the relative viability ([13]; first compound 0.006325 µM)?
A: The relative viability was 0.126.

Q: What about the relative viability ([13]; first compound 0.02 µM) of the same compound?
A: The relative viability was 0.0815.

Q: What about the relative viability ([14]; first compound 0.0002 µM) of the same compound?
A: Its relative viability is 0.899.

Q: What about the relative viability ([14]; first compound 0.000632 µM) of the same compound?
A: The relative viability was 0.757.

Q: And the relative viability ([14]; first compound 0.002 µM)?
A: Its relative viability is 0.395.

Q: And the relative viability ([14]; first compound 0.006325 µM)?
A: Its relative viability is 0.362.

Q: And the relative viability ([14]; first compound 0.02 µM)?
A: The relative viability was 0.288.

Q: And the relative viability ([15]; first compound 0.0002 µM)?
A: Its relative viability is 0.715.

Q: And the relative viability ([15]; first compound 0.000632 µM)?
A: Its relative viability is 0.153.

Q: And the relative viability ([15]; first compound 0.002 µM)?
A: The relative viability was 0.0174.

Q: What about the relative viability ([15]; first compound 0.006325 µM) of the same compound?
A: Its relative viability is 0.0113.

Q: What about the relative viability ([15]; first compound 0.02 µM) of the same compound?
A: Its relative viability is 0.0074.

Q: What about the relative viability ([16]; first compound 0.0002 µM) of the same compound?
A: Its relative viability is 1.09.

Q: And the relative viability ([16]; first compound 0.000632 µM)?
A: Its relative viability is 1.12.

Q: And the relative viability ([16]; first compound 0.002 µM)?
A: Its relative viability is 1.02.

Q: And the relative viability ([16]; first compound 0.02 µM)?
A: The relative viability was 0.227.

Q: What about the relative viability ([17]; first compound 0.0002 µM) of the same compound?
A: The relative viability was 0.423.

Q: And the relative viability ([17]; first compound 0.000632 µM)?
A: The relative viability was 0.545.

Q: And the relative viability ([17]; first compound 0.002 µM)?
A: Its relative viability is 0.0386.

Q: And the relative viability ([17]; first compound 0.006325 µM)?
A: The relative viability was 0.012.

Q: What about the relative viability ([17]; first compound 0.02 µM) of the same compound?
A: The relative viability was 0.0114.

Q: What about the relative viability ([18]; first compound 0.0002 µM) of the same compound?
A: Its relative viability is 1.15.

Q: What about the relative viability ([18]; first compound 0.000632 µM) of the same compound?
A: Its relative viability is 1.18.

Q: And the relative viability ([18]; first compound 0.002 µM)?
A: Its relative viability is 0.77.

Q: And the relative viability ([18]; first compound 0.006325 µM)?
A: Its relative viability is 0.522.

Q: What about the relative viability ([18]; first compound 0.02 µM) of the same compound?
A: The relative viability was 0.187.

Q: And the relative viability ([19]; first compound 0.0002 µM)?
A: The relative viability was 0.539.

Q: And the relative viability ([19]; first compound 0.000632 µM)?
A: The relative viability was 0.509.

Q: What about the relative viability ([19]; first compound 0.002 µM) of the same compound?
A: The relative viability was 0.379.

Q: What about the relative viability ([19]; first compound 0.02 µM) of the same compound?
A: The relative viability was 0.0833.

Q: What about the relative viability ([20]; first compound 0.0002 µM) of the same compound?
A: Its relative viability is 0.989.

Q: And the relative viability ([20]; first compound 0.000632 µM)?
A: The relative viability was 0.745.

Q: What about the relative viability ([20]; first compound 0.002 µM) of the same compound?
A: The relative viability was 0.628.

Q: What about the relative viability ([20]; first compound 0.006325 µM) of the same compound?
A: Its relative viability is 0.144.

Q: What about the relative viability ([20]; first compound 0.02 µM) of the same compound?
A: Its relative viability is 0.106.
